From the Kinase Knowledgebase extract (Sharma et al. 2016)

Molecular target: ROCK2 (human) (UniProt O75116)
Assay: Assessment of ROCK2 Kinase Activity

Chain of ROCK2 (human) (O75116 whole entry, looked up): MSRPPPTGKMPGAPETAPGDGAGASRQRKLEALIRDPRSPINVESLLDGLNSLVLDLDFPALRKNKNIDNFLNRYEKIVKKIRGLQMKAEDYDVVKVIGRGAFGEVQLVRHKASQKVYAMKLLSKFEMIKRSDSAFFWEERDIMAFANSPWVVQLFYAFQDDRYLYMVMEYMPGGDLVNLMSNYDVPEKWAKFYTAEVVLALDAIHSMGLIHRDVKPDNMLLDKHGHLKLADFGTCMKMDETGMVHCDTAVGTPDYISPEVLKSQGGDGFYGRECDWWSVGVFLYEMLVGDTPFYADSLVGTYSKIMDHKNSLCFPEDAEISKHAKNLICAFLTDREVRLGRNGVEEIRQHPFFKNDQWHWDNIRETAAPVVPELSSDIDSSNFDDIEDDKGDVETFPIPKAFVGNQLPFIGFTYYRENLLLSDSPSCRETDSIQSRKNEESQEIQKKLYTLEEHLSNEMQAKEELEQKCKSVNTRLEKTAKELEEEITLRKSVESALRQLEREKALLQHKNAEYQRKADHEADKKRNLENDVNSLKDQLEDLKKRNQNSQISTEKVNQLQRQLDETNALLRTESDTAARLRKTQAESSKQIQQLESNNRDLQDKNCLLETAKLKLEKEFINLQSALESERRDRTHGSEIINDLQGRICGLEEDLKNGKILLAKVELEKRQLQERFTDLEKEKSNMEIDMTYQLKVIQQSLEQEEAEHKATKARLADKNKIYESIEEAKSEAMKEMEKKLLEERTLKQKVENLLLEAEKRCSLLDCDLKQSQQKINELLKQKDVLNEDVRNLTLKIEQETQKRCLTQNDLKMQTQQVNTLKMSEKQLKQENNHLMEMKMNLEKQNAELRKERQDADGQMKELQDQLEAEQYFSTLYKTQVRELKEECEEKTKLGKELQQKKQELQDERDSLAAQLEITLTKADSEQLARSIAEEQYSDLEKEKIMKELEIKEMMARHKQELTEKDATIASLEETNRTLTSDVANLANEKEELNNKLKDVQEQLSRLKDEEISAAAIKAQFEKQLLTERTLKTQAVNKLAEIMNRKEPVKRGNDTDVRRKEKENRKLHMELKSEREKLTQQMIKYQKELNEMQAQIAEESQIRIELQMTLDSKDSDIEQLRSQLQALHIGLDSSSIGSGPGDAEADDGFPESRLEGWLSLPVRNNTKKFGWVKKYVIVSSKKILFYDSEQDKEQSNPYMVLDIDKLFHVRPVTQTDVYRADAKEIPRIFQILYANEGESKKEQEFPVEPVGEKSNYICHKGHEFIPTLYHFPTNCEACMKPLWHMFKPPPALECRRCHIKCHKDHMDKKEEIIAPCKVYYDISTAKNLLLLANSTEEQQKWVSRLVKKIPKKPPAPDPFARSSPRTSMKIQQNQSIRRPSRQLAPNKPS

Row | SMILES | IC50 [nM]
1 | N[C@@H](Cc1ccc(Cl)cc1)C(=O)N1CCC(Oc2cc3cc[nH]c(=O)c3cc2Cl)CC1 | ≤ 1000
2 | O=c1[nH]ccc2cc(OC3CCCNCC3)c(Cl)cc12 (configuration not stated) | ≤ 1000
3 | NCC(=O)N1CCC(Oc2ccc3c(=O)[nH]ccc3c2)CC1 | ≤ 1000
4 | O=c1[nH]ccc2cc(O[C@@H]3CCN(Cc4ccccc4)C3)c(Cl)cc12 | ≤ 1000
5 | Cc1cc2c(=O)[nH]ccc2cc1OC1CCCNCC1 (configuration not stated) | ≤ 1000
6 | O=C([C@@H]1CCCN1)N1CCC(Oc2cc3cc[nH]c(=O)c3cc2Cl)CC1 | ≤ 1000
7 | O=c1[nH]ccc2cc(OC3CNC3)c(Cl)cc12 | ≤ 1000
8 | CN(C)CC(=O)N1CCC(Oc2cc3cc[nH]c(=O)c3cc2Cl)CC1 | ≤ 1000
9 | Cc1cc2c(=O)[nH]ccc2cc1O[C@H]1CCNC1 | ≤ 1000
10 | C[C@@H](N)C(=O)N1CCC(Oc2cc3cc[nH]c(=O)c3cc2Cl)CC1 | ≤ 1000
11 | CCCNC(=O)CN1CCC(Oc2cc3cc[nH]c(=O)c3cc2Cl)CC1 | ≤ 1000
12 | Cc1cc2c(=O)[nH]ccc2cc1OC[C@@H]1CCNC1 | ≤ 1000
